Assay results reported in US8754054B2, “Antibacterial compounds, methods of making them, and uses thereof” (Albany Molecular Research, Inc., priority 2010, dated 2014).
In brackets after ≈: the same amount, converted by molar mass.

Experiments:
S. aureus (ATCC 29213) = test: Antibacterial activity in vitro, NCCLS dilution method (Table 10); assay type: cell-based; details: Gram +, MSSA
Text: (§1) NCCLS standards for antimicrobial susceptibility testing using the dilution method were followed. See: Performance Standards for Antimicrobial Susceptibility Testing; Fourteenth Informational Supplement. NCCLS Document M100-S14 (ISBN 1-56238-516-X), 2004. NCCLS, 940 West Valley Road, Suite 1400, Wayne, Pa. 19087-1898 USA, 2004; Methods for Dilution Antimicrobial Susceptibility Tests for Bacteria that Grow Aerobically; Approved Standard—Sixth Edition. NCCLS document M7-A6 (IBSBN 1-56238-486-4), NCCLS, 940 West Valley Road, Suite 1400, Wayne, Pa. 19087-1898 USA, 2003, which are hereby incorporated by reference in their entirety.

S. aureus 1137 = test: as above; assay type: cell-based; details: S. aureus 1137, Gram +, MRSA
Text: as §1

S. aureus (ATCC 43300) = test: as above; assay type: cell-based; details: Gram +, MRSA
Text: as §1

E. faecium 700221 = test: as above; assay type: cell-based; details: E. faecium 700221, Gram +, VRE
Text: as §1

[1] = test system: P. aeruginosa (ATCC 27853); test: as above; assay type: cell-based; details: Gram −
Text: as §1

S. pneumoniae 376 = test: as above; assay type: cell-based; details: S. pneumoniae 376, Gram +, Quin-R
Text: as §1

K. pneumoniae 2262 = test: as above; assay type: cell-based; details: K. pneumoniae 2262, Gram −, ampC, MDR
Text: as §1

E. coli 2269 = test: as above; assay type: cell-based; details: E. coli 2269, Gram −, ESBL-producer
Text: as §1

S. aureus 1725 = test: as above; assay type: cell-based; details: S. aureus 1725, Gram +, LRSA
Text: as §1

K. pneumoniae 2239 = test: as above; assay type: cell-based; details: K. pneumoniae 2239, Gram −
Text: as §1

M. catarrhalis 557 = test: as above; assay type: cell-based; details: M. catarrhalis 557, Gram −
Text: as §1

S. aureus 2012 = test: as above; assay type: cell-based; details: S. aureus 2012, Gram +, VISA
Text: as §1

S. marcescens 1635 = test: as above; assay type: cell-based; details: S. marcescens 1635, Gram −
Text: as §1

S. pneumoniae 975 = test: as above; assay type: cell-based; details: S. pneumoniae 975, Gram +, PSSP
Text: as §1

S. aureus (ATCC 6538) = test: as above; assay type: cell-based; details: Gram +, MSSA
Text: as §1

[2] = test system: H. parainfluenzae 2319 (ATCC 7901); test: as above; assay type: cell-based; details: Gram −
Text: as §1

S. pneumoniae 940 = test: as above; assay type: cell-based; details: S. pneumoniae 940, Gram +, PRSP
Text: as §1

E. coli 102 (ATCC 25922) = test: as above; assay type: cell-based; details: Gram −, QC strain
Text: as §1

H. influenzae 1742 = test: as above; assay type: cell-based; details: H. influenzae 1742, Gram −, ampR
Text: as §1

MRSA 43300 = test: Antibacterial activity, NCCLS dilution method (Table 9); assay type: cell-based, S. aureus; details: Staphylococcus aureus, MRSA, MRSA 43300; dilution method; labels marked a tested as a mixture of diastereomers; read-out: MRSA 43300 MIC
Outline: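 MIC determined by dilution susceptibility testing following NCCLS standards M7-A6 and M100-S14 for aerobically growing bacteria.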

SMILES: CC(=O)NC[C@H]1CN(c2ccc(N3CCOCC3)c(F)c2)C(=O)O1 [Linezolid]
- antibacterial activity (dilution susceptibility test) (S. aureus (ATCC 29213)): 4
- antibacterial activity (dilution susceptibility test) (S. aureus 1137): 4
- antibacterial activity (dilution susceptibility test) (S. aureus (ATCC 43300)): 1
- antibacterial activity (dilution susceptibility test) (E. faecium 700221): 1
- antibacterial activity (dilution susceptibility test) [1]: >64
- antibacterial activity (dilution susceptibility test) (S. pneumoniae 376): 1
- antibacterial activity (dilution susceptibility test) (K. pneumoniae 2262): >64
- antibacterial activity (dilution susceptibility test) (E. coli 2269): >64
- antibacterial activity (dilution susceptibility test) (S. aureus 1725): 4
- antibacterial activity (dilution susceptibility test) (K. pneumoniae 2239): >64
- antibacterial activity (dilution susceptibility test) (M. catarrhalis 557): 8
- antibacterial activity (dilution susceptibility test) (S. aureus 2012): 1
- antibacterial activity (dilution susceptibility test) (S. marcescens 1635): >64
- antibacterial activity (dilution susceptibility test) (S. pneumoniae 975): 1
- antibacterial activity (dilution susceptibility test) (S. aureus (ATCC 6538)): 0.5
- antibacterial activity (dilution susceptibility test) [2]: 16
- antibacterial activity (dilution susceptibility test) (S. pneumoniae 940): 0.5
- antibacterial activity (dilution susceptibility test) (E. coli 102 (ATCC 25922)): >64
- antibacterial activity (dilution susceptibility test) (H. influenzae 1742): 8

SMILES: C[C@@H](O)[C@H]1C(=O)N2C(C(=O)O)=C(S[C@@H]3CN[C@H](C(=O)N(C)C)C3)[C@H](C)[C@H]12 [Meropenem]
- antibacterial activity (dilution susceptibility test) (S. aureus (ATCC 29213)): 0.12
- antibacterial activity (dilution susceptibility test) (S. aureus 1137): >4
- antibacterial activity (dilution susceptibility test) (S. pneumoniae 376): 0.015
- antibacterial activity (dilution susceptibility test) (K. pneumoniae 2262): >4
- antibacterial activity (dilution susceptibility test) (E. coli 2269): 0.03
- antibacterial activity (dilution susceptibility test) (S. aureus 1725): 0.25
- antibacterial activity (dilution susceptibility test) (K. pneumoniae 2239): 0.06
- antibacterial activity (dilution susceptibility test) (M. catarrhalis 557): ≦0.04
- antibacterial activity (dilution susceptibility test) (S. aureus 2012): >4
- antibacterial activity (dilution susceptibility test) (S. marcescens 1635): 0.12
- antibacterial activity (dilution susceptibility test) (S. pneumoniae 975): 0.015
- antibacterial activity (dilution susceptibility test) [2]: 0.03
- antibacterial activity (dilution susceptibility test) (S. pneumoniae 940): 1
- antibacterial activity (dilution susceptibility test) (E. coli 102 (ATCC 25922)): 0.03
- antibacterial activity (dilution susceptibility test) (H. influenzae 1742): 0.06

SMILES: CO[C@@H]1[C@@H](O)[C@@H](OC)C(NC2=CC(=O)c3c(cc4c(c3O)C(=O)[C@]3(OC)[C@H](O)Cc5cc(C)c(C(=O)NCCCc6ccccc6)c(O)c5[C@]3(O)C4=O)C2=O)O[C@H]1C (mixture of isomers) [Example 25, (6R,6aS,14aR)-1,6,8,14a-Tetrahydroxy-11-((3R,4R,5R,6S)-4-hydroxy-3,5-dimethoxy-6-methyltetrahydro-2H-pyran-2-ylamino)-6a-methoxy-3-methyl-7,9,12,14-tetraoxo-N-(3-phenylpropyl)-5,6,6a,7,9,12,14,14a-octahydrobenzo[a]tetracene-2-carboxamide]
- MIC (MRSA 43300): 2 to 4 µg/mL (≈ 2.5 to 4.99 µM)

SMILES: COC(=O)c1c(C)c(Br)c2c(c1O)[C@]1(O)C(=O)c3cc4c(c(O)c3C(=O)[C@]1(OC)[C@H](O)C2)C(=O)C(Br)=C(N[C@H]1O[C@@H](C)[C@H](OC)[C@@H](O)[C@H]1OC)C4=O [Example 39, (6R,6aS,14aR)-Methyl 4,10-dibromo-1,6,8,14a-tetrahydroxy-11-((2S,3R,4R,5R,6S)-4-hydroxy-3,5-dimethoxy-6-methyltetrahydro-2H-pyran-2-ylamino)-6a-methoxy-3-methyl-7,9,12,14-tetraoxo-5,6,6a,7,9,12,14,14a-octahydrobenzo[a]tetracene-2-carboxylate]
- MIC (MRSA 43300): 2 µg/mL (≈ 2.34 µM)

SMILES: CCOC(=O)c1c(C)cc2c(c1O)[C@]1(O)C(=O)c3cc4c(c(O)c3C(=O)[C@]1(OC)[C@H](O)C2)C(=O)C=C(N[C@H]1O[C@@H](C)[C@H](OC)[C@@H](O)[C@H]1OC)C4=O [Example 34, (6R,6aS,14aR)-Ethyl 1,6,8,14a-tetrahydroxy-11-((2S,3R,4R,5R,6S)-4-hydroxy-3,5-dimethoxy-6-methyltetrahydro-2H-pyran-2-ylamino)-6a-methoxy-3-methyl-7,9,12,14-tetraoxo-5,6,6a,7,9,12,14,14a-octahydrobenzo[a]tetracene-2-carboxylate]
- MIC (MRSA 43300): 0.008 to 0.016 µg/mL (≈ 0.0112 to 0.0225 µM)

SMILES: CO[C@@H]1[C@@H](O)[C@@H](OC)[C@@H](NC2=CC(=O)c3c(cc4c(c3O)C(=O)[C@]3(OC)[C@H](O)Cc5cc(C)c(C(=O)O)c(O)c5[C@]3(O)C4=O)C2=O)O[C@H]1C [Example 13, (6R,6aS,14aR)-1,6,8,14a-Tetrahydroxy-11-((2S,3R,4R,5R,6S)-4-hydroxy-3,5-dimethoxy-6-methyltetrahydro-2H-pyran-2-ylamino)-6a-methoxy-3-methyl-7,9,12,14-tetraoxo-5,6,6a,7,9,12,14,14a-octahydrobenzo[a]tetracene-2-carboxylic acid]
- MIC (MRSA 43300): 32 µg/mL (≈ 46.8 µM)

SMILES: CO[C@@H]1[C@@H](O)[C@@H](OC)[C@@H](NC2=CC(=O)c3c(cc4c(c3O)C(=O)[C@]3(OC)[C@H](O)Cc5cc(C)c(C(N)=O)c(O)c5[C@]3(O)C4=O)C2=O)O[C@H]1C [Example 20, (6R,6aS,14aR)-1,6,8,14a-Tetrahydroxy-11-((2S,3R,4R,5R,6S)-4-hydroxy-3,5-dimethoxy-6-methyltetrahydro-2H-pyran-2-ylamino)-6a-methoxy-3-methyl-7,9,12,14-tetraoxo-5,6,6a,7,9,12,14,14a-octahydrobenzo[a]tetracene-2-carboxamide]
- MIC (MRSA 43300): 2 µg/mL (≈ 2.93 µM)

SMILES: CO[C@@H]1[C@@H](O)[C@@H](OC)C(NC2=CC(=O)c3c(cc4c(c3O)C(=O)[C@]3(OC)[C@H](O)Cc5cc(C)c(C(=O)N6CCCC6)c(O)c5[C@]3(O)C4=O)C2=O)O[C@H]1C (mixture of isomers) [Example 22, (6R,6aS,14aR)-1,6,8,14a-Tetrahydroxy-11-((3R,4R,5R,6S)-4-hydroxy-3,5-dimethoxy-6-methyltetrahydro-2H-pyran-2-ylamino)-6a-methoxy-3-methyl-2-(pyrrolidine-1-carbonyl)-6,6a-dihydrobenzo[a]tetracene-7,9,12,14(5H,14aH)-tetraone]
- MIC (MRSA 43300): 1 µg/mL (≈ 1.36 µM)

SMILES: COc1ccc(CNC(=O)c2c(C)cc3c(c2O)[C@]2(O)C(=O)c4cc5c(c(O)c4C(=O)[C@]2(OC)[C@H](O)C3)C(=O)C=C(N[C@H]2O[C@@H](C)[C@H](OC)[C@@H](O)[C@H]2OC)C5=O)cc1 [Example 28, (6R,6aS,14aR)-1,6,8,14a-Tetrahydroxy-11-((3R,4R,5R,6S)-4-hydroxy-3,5-dimethoxy-6-methyltetrahydro-2H-pyran-2-ylamino)-6a-methoxy-N-(4-methoxybenzyl)-3-methyl-7,9-12-14-tetraoxo-5,6,6a,7,9,12,14,14a-octahydrobenzo[a]tetracene-2-carboxamide]
- MIC (MRSA 43300): 0.5 µg/mL (≈ 0.623 µM)

SMILES: COC(=O)c1c(C)cc2c(c1OCc1ccccc1)[C@]1(O)C(=O)c3cc4c(c(O)c3C(=O)[C@]1(OC)[C@H](O)C2)C(=O)C=C(N[C@H]1O[C@@H](C)[C@H](OC)[C@@H](O)[C@H]1OC)C4=O [Example 7, (6R,6aS,14aR)-Methyl 1-(benzyloxy)-6,8,14a-trihydroxy-11-((2S,3R,4R,5R,6S)-4-hydroxy-3,5-dimethoxy-6-methyltetrahydro-2H-pyran-2-ylamino)-6a-methoxy-3-methyl-7,9,12,14-tetraoxo-5,6,6a,7,9,12,14,14a-octahydrobenzo[a]tetracene-2-carboxylate]
- MIC (MRSA 43300): 0.12 µg/mL (≈ 0.152 µM)
